Counter-ions that a name gives are not always drawn. Activity calls are given as the source filed them. For most assays here, no stated cut-off is given here; in the data, actives have a measured Kd and inactives only a lower limit.
How the values were obtained:
[1] = target: T1, Mitogen-activated protein kinase kinase kinase 2 (Homo sapiens, UniProt Q9Y2U5)
T1 sequence (Q9Y2U5 whole entry): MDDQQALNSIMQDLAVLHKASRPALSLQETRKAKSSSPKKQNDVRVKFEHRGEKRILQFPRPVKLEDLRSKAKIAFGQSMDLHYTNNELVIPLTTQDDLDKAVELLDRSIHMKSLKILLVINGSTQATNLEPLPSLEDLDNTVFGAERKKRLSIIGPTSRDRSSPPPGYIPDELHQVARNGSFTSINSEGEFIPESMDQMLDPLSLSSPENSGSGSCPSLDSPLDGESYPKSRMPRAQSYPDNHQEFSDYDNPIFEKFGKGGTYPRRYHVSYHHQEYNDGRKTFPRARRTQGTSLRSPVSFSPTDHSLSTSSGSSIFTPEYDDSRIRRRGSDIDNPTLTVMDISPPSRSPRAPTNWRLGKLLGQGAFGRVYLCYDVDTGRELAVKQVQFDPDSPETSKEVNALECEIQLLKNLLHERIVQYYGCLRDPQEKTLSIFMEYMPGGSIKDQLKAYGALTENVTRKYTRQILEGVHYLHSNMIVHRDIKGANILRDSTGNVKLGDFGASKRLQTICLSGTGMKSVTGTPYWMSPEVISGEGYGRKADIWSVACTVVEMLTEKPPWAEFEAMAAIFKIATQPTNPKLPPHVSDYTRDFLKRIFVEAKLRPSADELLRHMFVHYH

[2] = target: Serine/threonine-protein kinase/endoribonuclease IRE1 (Homo sapiens, UniProt O75460)
[3] = target: Calcium/calmodulin-dependent protein kinase kinase 2 (Homo sapiens, UniProt Q96RR4)
[4] = target: cAMP-dependent protein kinase catalytic subunit beta (Homo sapiens, UniProt P22694)
dCTP pyrophosphatase 1 = target: T2, dCTP pyrophosphatase 1 (Homo sapiens, UniProt Q9H773)
T2 sequence (Q9H773 whole entry): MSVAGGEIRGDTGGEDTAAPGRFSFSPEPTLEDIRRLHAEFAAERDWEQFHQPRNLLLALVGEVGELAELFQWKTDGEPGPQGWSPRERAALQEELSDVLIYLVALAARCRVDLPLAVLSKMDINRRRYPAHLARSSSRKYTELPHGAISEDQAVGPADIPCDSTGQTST

[5] = target: Dual specificity protein kinase CLK1 (Homo sapiens, UniProt P49759)
[6] = target: 26S proteasome regulatory subunit 6B (Homo sapiens, UniProt P43686)
[7] = target: Casein kinase I isoform delta (Homo sapiens, UniProt P48730)
[8] = target: Mitogen-activated protein kinase kinase kinase kinase 4 (Homo sapiens, UniProt O95819)
[9] = target: Mitogen-activated protein kinase 14 (Homo sapiens, UniProt Q16539)
[10] = target: T3, Phosphatidylinositol 5-phosphate 4-kinase type-2 alpha (Homo sapiens, UniProt P48426)
T3 sequence (P48426 whole entry): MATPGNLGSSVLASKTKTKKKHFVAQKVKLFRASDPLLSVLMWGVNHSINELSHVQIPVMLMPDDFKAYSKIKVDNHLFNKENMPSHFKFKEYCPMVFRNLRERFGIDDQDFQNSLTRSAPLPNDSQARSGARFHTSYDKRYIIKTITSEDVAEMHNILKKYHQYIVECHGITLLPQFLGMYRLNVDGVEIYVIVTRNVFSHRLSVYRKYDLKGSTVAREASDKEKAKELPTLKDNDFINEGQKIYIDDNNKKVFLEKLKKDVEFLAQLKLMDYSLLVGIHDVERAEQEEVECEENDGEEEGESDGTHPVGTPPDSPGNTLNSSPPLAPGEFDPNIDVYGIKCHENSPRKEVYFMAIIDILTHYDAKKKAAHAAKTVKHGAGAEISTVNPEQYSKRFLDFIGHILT

[11] = target: Mitogen-activated protein kinase kinase kinase 4 (Homo sapiens, UniProt Q9Y6R4)
[12] = target: T4, Cytochrome c1, heme protein, mitochondrial (Homo sapiens, UniProt P08574)
T4 sequence (P08574 whole entry): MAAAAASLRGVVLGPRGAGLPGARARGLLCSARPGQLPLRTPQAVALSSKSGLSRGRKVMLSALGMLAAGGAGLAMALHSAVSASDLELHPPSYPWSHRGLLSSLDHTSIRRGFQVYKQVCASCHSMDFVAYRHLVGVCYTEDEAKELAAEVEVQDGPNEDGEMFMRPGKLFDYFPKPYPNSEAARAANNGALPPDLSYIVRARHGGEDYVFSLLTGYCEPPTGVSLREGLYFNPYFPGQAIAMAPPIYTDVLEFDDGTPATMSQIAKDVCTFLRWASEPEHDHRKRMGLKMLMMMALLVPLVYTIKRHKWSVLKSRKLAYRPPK

[13] = target: Rho-associated protein kinase 2 (Homo sapiens, UniProt O75116)
[14] = target: Glycogen synthase kinase-3 alpha (Homo sapiens, UniProt P49840)
Chain of Glycogen synthase kinase-3 alpha (P49840 whole entry): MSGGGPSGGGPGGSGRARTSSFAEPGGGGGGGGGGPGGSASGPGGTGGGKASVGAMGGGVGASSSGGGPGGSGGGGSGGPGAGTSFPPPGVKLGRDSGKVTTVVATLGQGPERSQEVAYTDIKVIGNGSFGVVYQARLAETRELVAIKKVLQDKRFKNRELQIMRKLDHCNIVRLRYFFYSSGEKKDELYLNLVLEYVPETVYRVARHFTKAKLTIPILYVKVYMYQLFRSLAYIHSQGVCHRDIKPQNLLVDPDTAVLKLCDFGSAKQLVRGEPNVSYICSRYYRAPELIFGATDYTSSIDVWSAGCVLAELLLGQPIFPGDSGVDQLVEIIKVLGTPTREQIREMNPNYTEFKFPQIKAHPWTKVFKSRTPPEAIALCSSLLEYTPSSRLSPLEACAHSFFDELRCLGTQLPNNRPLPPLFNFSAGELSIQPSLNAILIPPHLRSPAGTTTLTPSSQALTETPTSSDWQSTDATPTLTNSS

Chain of Mitogen-activated protein kinase 14 (Q16539 whole entry): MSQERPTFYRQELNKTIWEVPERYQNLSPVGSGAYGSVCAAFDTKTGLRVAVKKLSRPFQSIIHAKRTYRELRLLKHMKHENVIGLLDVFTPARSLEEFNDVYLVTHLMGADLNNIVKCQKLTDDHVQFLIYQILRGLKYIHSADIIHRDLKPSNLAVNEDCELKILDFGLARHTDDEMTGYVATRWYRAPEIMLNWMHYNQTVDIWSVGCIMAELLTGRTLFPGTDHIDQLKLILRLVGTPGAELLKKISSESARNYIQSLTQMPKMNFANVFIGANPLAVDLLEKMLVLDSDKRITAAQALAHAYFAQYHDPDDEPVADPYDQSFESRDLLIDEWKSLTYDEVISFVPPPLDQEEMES
Chain of Calcium/calmodulin-dependent protein kinase kinase 2 (Q96RR4 whole entry): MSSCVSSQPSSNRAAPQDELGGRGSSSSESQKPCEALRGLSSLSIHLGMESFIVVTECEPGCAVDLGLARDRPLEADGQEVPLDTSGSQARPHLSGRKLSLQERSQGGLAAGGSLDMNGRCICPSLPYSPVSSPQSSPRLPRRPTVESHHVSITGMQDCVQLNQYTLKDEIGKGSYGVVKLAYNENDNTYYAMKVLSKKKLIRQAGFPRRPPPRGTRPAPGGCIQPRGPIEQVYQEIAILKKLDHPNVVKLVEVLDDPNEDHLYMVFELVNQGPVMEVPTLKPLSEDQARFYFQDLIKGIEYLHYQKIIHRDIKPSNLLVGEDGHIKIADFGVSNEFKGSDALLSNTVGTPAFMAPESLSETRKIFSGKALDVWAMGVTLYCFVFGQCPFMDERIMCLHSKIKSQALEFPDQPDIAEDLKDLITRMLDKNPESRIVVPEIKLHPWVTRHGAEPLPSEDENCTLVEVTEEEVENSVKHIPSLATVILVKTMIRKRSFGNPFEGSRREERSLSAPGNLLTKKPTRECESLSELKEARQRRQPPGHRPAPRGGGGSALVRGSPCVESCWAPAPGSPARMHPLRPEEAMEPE
Chain of Serine/threonine-protein kinase/endoribonuclease IRE1 (O75460 whole entry): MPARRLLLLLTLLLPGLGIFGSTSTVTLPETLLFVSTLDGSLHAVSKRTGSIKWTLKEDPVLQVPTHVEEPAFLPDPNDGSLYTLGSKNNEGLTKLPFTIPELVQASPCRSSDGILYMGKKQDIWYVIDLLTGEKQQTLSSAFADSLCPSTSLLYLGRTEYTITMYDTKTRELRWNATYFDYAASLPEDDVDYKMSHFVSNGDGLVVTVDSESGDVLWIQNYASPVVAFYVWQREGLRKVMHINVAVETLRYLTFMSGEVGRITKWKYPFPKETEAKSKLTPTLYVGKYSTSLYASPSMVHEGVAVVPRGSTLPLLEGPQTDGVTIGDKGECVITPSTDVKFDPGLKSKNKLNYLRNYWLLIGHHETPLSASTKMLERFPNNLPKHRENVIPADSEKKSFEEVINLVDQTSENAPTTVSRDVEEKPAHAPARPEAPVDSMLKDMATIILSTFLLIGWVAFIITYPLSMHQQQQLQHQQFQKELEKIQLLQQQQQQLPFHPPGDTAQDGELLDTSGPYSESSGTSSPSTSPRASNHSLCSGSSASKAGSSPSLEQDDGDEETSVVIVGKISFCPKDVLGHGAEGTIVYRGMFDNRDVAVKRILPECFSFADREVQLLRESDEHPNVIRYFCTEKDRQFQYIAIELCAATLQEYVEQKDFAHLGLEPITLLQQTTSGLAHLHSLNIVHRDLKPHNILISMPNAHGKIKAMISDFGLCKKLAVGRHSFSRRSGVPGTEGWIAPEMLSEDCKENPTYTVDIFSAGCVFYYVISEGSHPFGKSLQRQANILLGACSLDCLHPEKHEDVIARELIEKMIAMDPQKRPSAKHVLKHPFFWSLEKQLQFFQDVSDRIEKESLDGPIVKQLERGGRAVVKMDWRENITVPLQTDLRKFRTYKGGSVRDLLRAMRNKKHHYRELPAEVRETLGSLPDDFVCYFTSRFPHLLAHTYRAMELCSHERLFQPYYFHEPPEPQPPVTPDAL
Chain of Dual specificity protein kinase CLK1 (P49759 whole entry): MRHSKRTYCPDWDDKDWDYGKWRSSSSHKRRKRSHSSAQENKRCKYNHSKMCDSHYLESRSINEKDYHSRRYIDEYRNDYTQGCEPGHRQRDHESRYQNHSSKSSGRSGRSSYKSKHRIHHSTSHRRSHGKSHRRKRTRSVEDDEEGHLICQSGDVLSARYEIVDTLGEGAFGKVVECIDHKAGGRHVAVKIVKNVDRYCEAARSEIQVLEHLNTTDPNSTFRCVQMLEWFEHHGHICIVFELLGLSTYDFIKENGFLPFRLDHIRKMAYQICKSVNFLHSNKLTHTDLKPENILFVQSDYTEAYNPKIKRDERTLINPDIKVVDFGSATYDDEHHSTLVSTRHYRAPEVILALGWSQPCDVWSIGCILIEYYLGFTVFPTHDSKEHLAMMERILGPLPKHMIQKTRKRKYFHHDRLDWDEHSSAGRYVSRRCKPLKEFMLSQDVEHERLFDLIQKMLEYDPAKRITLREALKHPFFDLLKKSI
Chain of Mitogen-activated protein kinase kinase kinase 4 (Q9Y6R4 whole entry): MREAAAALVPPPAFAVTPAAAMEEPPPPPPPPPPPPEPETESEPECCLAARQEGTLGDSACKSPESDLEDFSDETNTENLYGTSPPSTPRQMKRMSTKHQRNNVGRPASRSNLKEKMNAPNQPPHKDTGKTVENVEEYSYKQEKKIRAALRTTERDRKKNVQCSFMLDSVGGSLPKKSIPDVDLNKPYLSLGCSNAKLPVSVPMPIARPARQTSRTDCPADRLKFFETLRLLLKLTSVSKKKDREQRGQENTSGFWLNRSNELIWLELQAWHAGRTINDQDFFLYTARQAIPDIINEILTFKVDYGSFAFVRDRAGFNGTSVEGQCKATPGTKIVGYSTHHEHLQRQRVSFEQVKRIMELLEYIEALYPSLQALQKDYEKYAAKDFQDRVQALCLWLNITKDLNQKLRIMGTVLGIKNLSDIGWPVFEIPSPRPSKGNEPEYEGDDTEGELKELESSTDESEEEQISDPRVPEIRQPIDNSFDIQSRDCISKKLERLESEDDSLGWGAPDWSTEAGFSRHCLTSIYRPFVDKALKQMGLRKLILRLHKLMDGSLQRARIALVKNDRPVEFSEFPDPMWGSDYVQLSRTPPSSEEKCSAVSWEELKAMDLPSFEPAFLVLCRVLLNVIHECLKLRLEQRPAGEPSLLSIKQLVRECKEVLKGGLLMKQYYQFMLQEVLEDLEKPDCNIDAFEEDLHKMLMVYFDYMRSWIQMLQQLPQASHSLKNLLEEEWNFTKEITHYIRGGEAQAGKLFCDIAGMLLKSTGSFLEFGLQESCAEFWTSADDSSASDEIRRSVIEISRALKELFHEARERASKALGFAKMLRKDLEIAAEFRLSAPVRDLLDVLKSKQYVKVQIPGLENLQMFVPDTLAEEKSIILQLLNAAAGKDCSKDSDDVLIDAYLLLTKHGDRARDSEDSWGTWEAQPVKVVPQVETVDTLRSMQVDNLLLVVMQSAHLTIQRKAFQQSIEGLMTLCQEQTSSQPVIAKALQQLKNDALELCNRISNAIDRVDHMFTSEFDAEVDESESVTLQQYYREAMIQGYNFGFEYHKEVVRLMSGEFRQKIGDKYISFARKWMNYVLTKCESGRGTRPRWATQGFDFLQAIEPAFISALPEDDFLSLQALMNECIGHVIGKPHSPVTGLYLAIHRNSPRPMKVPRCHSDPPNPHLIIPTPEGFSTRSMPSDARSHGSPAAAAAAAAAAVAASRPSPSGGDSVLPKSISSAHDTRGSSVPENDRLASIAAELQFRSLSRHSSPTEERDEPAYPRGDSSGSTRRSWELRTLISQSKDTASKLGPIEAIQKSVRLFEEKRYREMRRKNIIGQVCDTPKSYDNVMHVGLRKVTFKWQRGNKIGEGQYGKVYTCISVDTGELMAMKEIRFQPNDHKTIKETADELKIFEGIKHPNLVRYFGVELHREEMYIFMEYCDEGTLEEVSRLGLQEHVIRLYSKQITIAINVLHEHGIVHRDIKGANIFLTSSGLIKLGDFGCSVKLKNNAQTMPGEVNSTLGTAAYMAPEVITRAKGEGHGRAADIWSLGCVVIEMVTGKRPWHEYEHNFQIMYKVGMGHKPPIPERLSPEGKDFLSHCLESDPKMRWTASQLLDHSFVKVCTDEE
Chain of Casein kinase I isoform delta (P48730 whole entry, canonical isoform): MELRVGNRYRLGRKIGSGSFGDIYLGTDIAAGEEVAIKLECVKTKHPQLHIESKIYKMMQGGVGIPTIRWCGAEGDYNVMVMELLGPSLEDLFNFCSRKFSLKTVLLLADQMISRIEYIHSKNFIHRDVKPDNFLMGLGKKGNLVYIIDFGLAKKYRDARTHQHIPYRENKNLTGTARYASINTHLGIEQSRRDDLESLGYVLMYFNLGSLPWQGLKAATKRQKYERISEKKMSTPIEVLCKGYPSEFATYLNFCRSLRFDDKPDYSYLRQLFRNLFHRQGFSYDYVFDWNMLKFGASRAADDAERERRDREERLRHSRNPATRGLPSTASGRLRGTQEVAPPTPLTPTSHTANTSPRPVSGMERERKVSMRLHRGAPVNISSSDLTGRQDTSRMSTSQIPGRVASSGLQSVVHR

Row | Kd [1] | Kd [2] | Kd [3] | Kd [4] | Kd (dCTP pyrophosphatase 1) | Kd [5] | Kd [6] | Kd [7] | Kd [8] | Kd [9] | Kd [10] | Kd [11] | Kd [12] | Kd [13] | Kd [14] | SMILES
1 | > 30 µM (inactive) | > 30 µM (inactive) | > 30 µM (inactive) | > 30 µM (inactive) | > 30 µM (inactive) | > 30 µM (inactive) | > 30 µM (inactive) | 2.38 µM (active) | > 30 µM (inactive) | > 30 µM (inactive) | > 30 µM (inactive) | > 30 µM (inactive) | > 30 µM (inactive) | 59 µM | 0.579 µM (active) | CN1C/C=C/CCOc2cccc(c2)-c2ccnc(n2)Nc2cccc(c2)C1 [ZOTIRACICLIB]
2 | > 30 µM (inactive) | > 30 µM (inactive) | 5.43 µM (active) | > 30 µM (inactive) | > 30 µM (inactive) | 1.06 µM | > 30 µM (inactive) | > 30 µM (inactive) | > 30 µM (inactive) | > 30 µM (inactive) | > 30 µM (inactive) | > 30 µM (inactive) | > 30 µM (inactive) | > 30 µM (inactive) | > 30 µM (inactive) | Cc1cc(Nc2ncc(Cl)c(Nc3ccccc3S(=O)(=O)C(C)C)n2)c(OC(C)C)cc1C1CCNCC1 [CERITINIB]
3 | > 30 µM (inactive) | > 30 µM (inactive) | > 30 µM (inactive) | > 30 µM (inactive) | > 30 µM (inactive) | > 30 µM (inactive) | > 30 µM (inactive) | > 30 µM (inactive) | > 30 µM (inactive) | > 30 µM (inactive) | > 30 µM (inactive) | > 30 µM (inactive) | > 30 µM (inactive) | > 30 µM (inactive) | > 30 µM (inactive) | N#CC1(c2ccc(NC(=O)c3cccnc3NCc3ccncc3)cc2)CCCC1 [RIVOCERANIB]
4 | > 30 µM (inactive) | > 30 µM (inactive) | > 30 µM (inactive) | > 30 µM (inactive) | > 30 µM (inactive) | > 30 µM (inactive) | > 30 µM (inactive) | > 30 µM (inactive) | > 30 µM (inactive) | > 30 µM (inactive) | > 30 µM (inactive) | > 30 µM (inactive) | > 30 µM (inactive) | > 30 µM (inactive) | > 30 µM (inactive) | CCNC(=O)C#Cc1ccc2c(c1)NC(=O)/C2=C(\Nc1ccc(CN(C)C)cc1)c1ccccc1
5 | > 30 µM (inactive) | > 30 µM (inactive) | > 30 µM (inactive) | > 30 µM (inactive) | > 30 µM (inactive) | > 30 µM (inactive) | > 30 µM (inactive) | > 30 µM (inactive) | > 30 µM (inactive) | > 30 µM (inactive) | > 30 µM (inactive) | > 30 µM (inactive) | > 30 µM (inactive) | > 30 µM (inactive) | > 30 µM (inactive) | CO[C@H]1C[C@@H]2CC[C@@H](C)[C@@](O)(O2)C(=O)C(=O)N2CCCC[C@H]2C(=O)O[C@H]([C@H](C)C[C@@H]2CC[C@@H](O)[C@H](OC)C2)CC(=O)[C@H](C)/C=C(\C)[C@@H](O)[C@@H](OC)C(=O)[C@H](C)C[C@H](C)/C=C/C=C/C=C/1C [SIROLIMUS]
6 | > 30 µM (inactive) | > 30 µM (inactive) | > 30 µM (inactive) | > 30 µM (inactive) | > 30 µM (inactive) | > 30 µM (inactive) | > 30 µM (inactive) | > 30 µM (inactive) | > 30 µM (inactive) | > 30 µM (inactive) | > 30 µM (inactive) | > 30 µM (inactive) | > 30 µM (inactive) | > 30 µM (inactive) | 22.5 µM (active) | CCS(=O)(=O)c1cccc(-c2cc(C(=O)NC3CCN(C)CC3)c(C)c3[nH]c4ncc(C)cc4c23)c1 [TAK-901]
7 | > 30 µM (inactive) | > 30 µM (inactive) | > 30 µM (inactive) | > 30 µM (inactive) | > 30 µM (inactive) | > 30 µM (inactive) | > 30 µM (inactive) | > 30 µM (inactive) | > 30 µM (inactive) | > 30 µM (inactive) | > 30 µM (inactive) | > 30 µM (inactive) | > 30 µM (inactive) | > 30 µM (inactive) | > 30 µM (inactive) | O=C(Cc1ccc(-c2ccc(OCCN3CCOCC3)cc2)cn1)NCc1ccccc1 [TIRBANIBULIN]
8 | > 30 µM (inactive) | > 30 µM (inactive) | > 30 µM (inactive) | > 30 µM (inactive) | > 30 µM (inactive) | > 30 µM (inactive) | > 30 µM (inactive) | > 30 µM (inactive) | > 30 µM (inactive) | 0.566 µM (active) | > 30 µM (inactive) | > 30 µM (inactive) | > 30 µM (inactive) | > 30 µM (inactive) | > 30 µM (inactive) | COc1cc2ncnc(Oc3cccc(NC(=O)Nc4cc(C(C)(C)C(F)(F)F)on4)c3)c2cc1OC [CEP-32496]
9 | 0.747 µM (active) | > 30 µM (inactive) | > 30 µM (inactive) | > 30 µM (inactive) | > 30 µM (inactive) | > 30 µM (inactive) | > 30 µM (inactive) | > 30 µM (inactive) | 3.06 µM (active) | > 30 µM (inactive) | > 30 µM (inactive) | > 30 µM (inactive) | > 30 µM (inactive) | > 30 µM (inactive) | > 30 µM (inactive) | CCS(=O)(=O)N1CCN(c2ccc(Nc3ncc(C(N)=O)c(NC4CC4)n3)cc2)CC1 [Cerdulatinib Hydrochloride]
10 | > 30 µM (inactive) | > 30 µM (inactive) | > 30 µM (inactive) | > 30 µM (inactive) | > 30 µM (inactive) | > 30 µM (inactive) | > 30 µM (inactive) | > 30 µM (inactive) | > 30 µM (inactive) | > 30 µM (inactive) | > 30 µM (inactive) | > 30 µM (inactive) | > 30 µM (inactive) | > 30 µM (inactive) | > 30 µM (inactive) | Cc1cc(C(=O)NOCCO)c(Nc2ccc(I)cc2F)n(C)c1=O [AZD-8330]
11 | > 30 µM (inactive) | > 30 µM (inactive) | > 30 µM (inactive) | > 30 µM (inactive) | > 30 µM (inactive) | > 30 µM (inactive) | > 30 µM (inactive) | > 30 µM (inactive) | > 30 µM (inactive) | > 30 µM (inactive) | > 30 µM (inactive) | > 30 µM (inactive) | > 30 µM (inactive) | > 30 µM (inactive) | > 30 µM (inactive) | C#Cc1cccc(Nc2ncnc3cc(OC)c(OCCCCCCC(=O)NO)cc23)c1 [CUDC-101]
12 | > 30 µM (inactive) | > 30 µM (inactive) | > 30 µM (inactive) | > 30 µM (inactive) | > 30 µM (inactive) | > 30 µM (inactive) | > 30 µM (inactive) | > 30 µM (inactive) | > 30 µM (inactive) | > 30 µM (inactive) | > 30 µM (inactive) | > 30 µM (inactive) | > 30 µM (inactive) | > 30 µM (inactive) | > 30 µM (inactive) | NC1(c2ccc(-c3nc4ccn5c(=O)[nH]nc5c4cc3-c3ccccc3)cc2)CCC1 [MK-2206]

— ChEMBL document CHEMBL3991601, “The target landscape of clinical kinase drugs” (Science, 2017)
